Patent US9670219B2, “Tetrahydrooxepinopyridine compound” (ASTELLAS PHARMA INC., priority 2015, dated 2017)
Where a name gives a salt, the structure may show the parent alone.

What was measured:
human α7 nACh receptor [1] = biological target: T1, human α7 nACh receptor (Homo sapiens, UniProt P36544); test: Evaluation for human α7 nACh receptor using FLIPR (intracellular calcium response, PAM activity); type: cell-based; conditions: for Max: maximum response of test drug with agonist PNU-282987, relative to maximum response of PNU-120596 = 100%; for EC20: test drug concentration giving 20% response, maximum response of PNU-120596 with agonist PNU-282987 (0.6 μM) = 100%, HEK293 cells co-expressing human α7 nACh receptor/rat RIC3
T1 construct: expressed in transfected cells; host or cells: HEK293 cells (ATCC CRL-1573), transient co-transfection by electroporation with rat RIC3 (NM_001115045.3)
Protocol: Assay buffer: HBSS buffer containing 1.25 mM probenecid.
The PAM activity of a test drug was evaluated in terms of Ca^2+ dye-based fluorescence intensity for an intracellular calcium response in the presence of an α7 nACh receptor-selective agonist PNU-282987 (CAS registry number: 123464-89-1, Tocris) using a FLIPR tetra (Molecular Devices).
In the case where a concentration-response curve has been obtained in which the logarithm of a concentration of a test drug is on the abscissa and the ratio of a response (hereinafter, also referred to as calcium response) is on the ordinate, this test drug has been determined to have a PAM activity.
In this test, the agonist (PNU-282987) elicited a calcium response only in the presence of PAM (PNU-120596).
The coding sequence of a human α7 nACh receptor (accession number: NM_000746.5) was subcloned into a pCEP4 vector (Life Technologies). The coding sequence of a rat chaperone protein RIC3 (accession number: NM_001115045.3) was subcloned into a pcDNA3.1/Hygro (+) vector (Life Technologies). The resulting constructs were transfected into HEK293 cells (ATCC number: CRL-1573) by an electroporation method using Neon (Life Technologies).
The transiently expressing cells obtained in the manner described above were seeded at a density of 8×10^3 cells/well onto a 384-well plate (Becton Dickinson) and allowed to stand overnight at 37° C. DMEM+10% FBS was used as a medium.
On the next day, the medium was removed, and Fluo4-AM (Dojindo) prepared using an assay buffer was applied, followed by allowing to stand for 1 hour. The test drug was dissolved in DMSO and then made to a final concentration of 0.03 to 100 μM (3-fold dilutions) with an assay buffer. Similarly, PNU-120596 which is a known PAM was made to a final concentration of 0.003 to 10 μM (3-fold dilutions). PNU-282987 which is an agonist was made to a final concentration of 0.6 μM. Thereafter, the test drug was applied to the cells using a FLIPR tetra, the agonist (PNU-282987) was added 5 minutes later, and the fluorescence intensity at that time was detected.
As a control, using (1) a group with neither addition of a test drug, PAM (PNU-120596) nor that of agonist (PNU-282987), the response thereof was set to 0%. Using (2) a group with the addition of PAM (PNU-120596) and agonist (PNU-282987), the maximum response thereof was set to 100%.
To quantitatively compare the PAM activity of the test drug, an EC20 value and a Max value were used as activity indicators. […] The EC20 value was calculated using a non-linear regression analysis from the concentration-response curve of a human α7 nACh receptor with the addition of a test drug. The Max value refers to a maximum response value. The Max value is expressed in terms of % value of the maximum response of a test drug in the presence of an agonist (PNU-282987) relative to when the maximum response of PAM (PNU-120596) in the presence of an agonist (PNU-282987) is set to 100%.

human α7 nACh receptor [2] = biological target: T1, human α7 nACh receptor; test: Electrophysiological evaluation for human α7 nACh receptor (Qpatch HTX or Qube current response); type: cell-based; design: key: positive: an inward current response specific to a human α7 nACh receptor was obtained when 3 μM of a test drug had been added; negative: a specific current response was not observed; conditions: 3 μM test drug added simultaneously with 100 μM AChCl; voltage-clamped at −90 mV
Protocol: The PAM activity of a test drug was evaluated by a current response in the presence of an α7 nACh receptor agonist Acetylcholine chloride (Sigma) (hereinafter, also referred to as AChCl) using Qpatch HTX (Biolin Scientific) or Qube (Biolin Scientific). This test cannot detect a small current response of AChCl alone. The current response can be detected only in the case where the test drug has a PAM activity.
Extracellular fluid (pH 7.4): NaCl 145 mM, KCl 4 mM, HEPES 10 mM, CaCl2 2 mM, MgCl2 1 mM.
Intracellular fluid (pH 7.2): KF 120 mM, KCl 20 mM, EGTA 0.1 mM, HEPES 10 mM, MgCl2 2 mM.
The cells were obtained in the same manner as in Test Example 1.
The response of a human α7 nACh receptor with the addition of a test drug was measured by the following experiment. Transient expression cells obtained by the method described above were subjected to the experiment after allowing to stand overnight at 37° C. The test drug was dissolved in DMSO, and then made to a final concentration of 3 μM using extracellular fluid. The agonist AChCl was made to a final concentration of 100 μM. The membrane potential was voltage-clamped at −90 mV. The current response was measured by multi-hole mode at the time of simultaneous addition of the test drug and AChCl to the cells, using QPatch HTX or Qube.
As a result of the tests above, the case where an inward current response specific to a human α7 nACh receptor was obtained when 3 μM of a test drug had been added was determined as positive, and the case where a specific current response was not observed was determined as negative. It should be noted that, when the agonist concentration is 0, the current response was not observed even with the addition of a test drug.

T1 sequence (P36544 23-502): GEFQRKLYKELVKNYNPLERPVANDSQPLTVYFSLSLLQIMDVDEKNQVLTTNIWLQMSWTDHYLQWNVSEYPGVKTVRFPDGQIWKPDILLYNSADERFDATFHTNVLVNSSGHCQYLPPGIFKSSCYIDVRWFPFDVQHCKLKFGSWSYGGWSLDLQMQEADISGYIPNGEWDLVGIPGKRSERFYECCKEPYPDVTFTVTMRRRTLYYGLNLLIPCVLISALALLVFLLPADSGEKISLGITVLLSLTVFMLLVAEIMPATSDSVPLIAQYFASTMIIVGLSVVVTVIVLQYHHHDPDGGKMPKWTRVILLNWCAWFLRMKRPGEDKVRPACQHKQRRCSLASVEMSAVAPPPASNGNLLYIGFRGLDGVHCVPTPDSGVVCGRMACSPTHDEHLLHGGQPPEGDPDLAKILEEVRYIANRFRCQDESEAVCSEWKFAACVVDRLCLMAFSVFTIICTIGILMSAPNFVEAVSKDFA

Row | Compound | Max (human α7 nACh receptor [1]) [%] | EC20 (human α7 nACh receptor [1]) [nM] | Dat. 1 (Determination) (human α7 nACh receptor [2]) | other results
1 | O=C(Nc1cccnn1)c1cc(N2CCC[C@H](C(F)(F)F)C2)nc2c1CCOCC2 [Ex 1, N-(pyridazin-3-yl)-2-[(3S)-3-(trifluoromethyl)piperidin-1-yl]-5,6,8,9-tetrahydrooxepino[4,5-b]pyridine-4-carboxamide fumarate] | 99.8 | 2720 |  | 
2 | O=C(Nc1cccnn1)c1cc(N2CCC[C@@H](C(F)(F)F)C2)nc2c1CCOCC2 [Ex 7, N-(pyridazin-3-yl)-2-[(3R)-3-(trifluoromethyl)piperidin-1-yl]-5,6,8,9-tetrahydrooxepino[4,5-b]pyridine-4-carboxamide fumarate] | 94.8 | 512 |  | 
3 | CC1(C)CN(c2cc(C(=O)Nc3cccnn3)c3c(n2)CCOCC3)CC(C)(C)O1 [Ex 9, N-(pyridazin-3-yl)-2-(2,2,6,6-tetramethylmorpholin-4-yl)-5,6,8,9-tetrahydrooxepino[4,5-b]pyridine-4-carboxamide hydrochloride] | 69.3 | 3520 |  | 
4 | C[C@@H]1CN(c2cc(C(=O)Nc3ccc(F)cn3)c3c(n2)CCOCC3)C[C@H](C)O1 [Ex 12, 2-[(2R,6S)-2,6-dimethylmorpholin-4-yl]-N-(5-fluoropyridin-2-yl)-5,6,8,9-tetrahydrooxepino[4,5-b]pyridine-4-carboxamide] | 96.9 | 4350 |  | 
5 | C[C@@H]1CN(c2cc(C(=O)Nc3ccc(Cl)cn3)c3c(n2)CCOCC3)C[C@H](C)O1 [Ex 18, N-(5-chloropyridin-2-yl)-2-[(2R,6S)-2,6-dimethylmorpholin-4-yl]-5,6,8,9-tetrahydrooxepino[4,5-b]pyridine-4-carboxamide hydrochloride] | 79.2 | 1020 | positive | 
6 | COc1ccc(NC(=O)c2cc(N3CCC[C@H]3C)nc3c2CCOCC3)nn1 [Ex 36] |  |  | positive | 
7 | Cc1cncc(NC(=O)c2cc(N3CCC[C@@H]3C)nc3c2CCOCC3)n1 [Ex 40, N-(6-methylpyrazin-2-yl)-2-[(2S)-2-methylpyrrolidin-1-yl]-5,6,8,9-tetrahydrooxepino[4,5-b]pyridine-4-carboxamide hydrochloride] |  |  | positive | 
8 | Cc1ncc(NC(=O)c2cc(N3CCC[C@H]3C)nc3c2CCOCC3)nc1C [Ex 46] |  |  | positive | 
9 | CO[C@H]1CCN(c2cc(C(=O)Nc3cccc(C#N)c3)c3c(n2)CCOCC3)C1 [Ex 48, N-(3-cyanophenyl)-2-[(3S)-3-methoxypyrrolidin-1-yl]-5,6,8,9-tetrahydrooxepino[4,5-b]pyridine-4-carboxamide hydrochloride] |  |  | positive | 
10 | O=C(Nc1cccnn1)c1cc(N2CCC(F)CC2)nc2c1CCOCC2 [Ex 50] |  |  | positive | 
11 | O=C(Nc1ccc(Cl)cn1)c1cc(N2CCC(F)CC2)nc2c1CCOCC2 [Ex 51, N-(5-chloropyridin-2-yl)-2-(4-fluoropiperidin-1-yl)-5,6,8,9-tetrahydrooxepino[4,5-b]pyridine-4-carboxamide] |  |  | positive | 
12 | Cc1ncc(NC(=O)c2cc(N3CCC[C@@H]3C)nc3c2CCOCC3)nc1C [Ex 55] |  |  | positive | 
13 | C[C@H]1CCCCN1c1cc(C(=O)Nc2cccnn2)c2c(n1)CCOCC2 [Ex 69, 2-[(2S)-2-methylpiperidin-1-yl]-N-(pyridazin-3-yl)-5,6,8,9-tetrahydrooxepino[4,5-b]pyridine-4-carboxamide hydrochloride] |  |  | positive | 
14 | C[C@H]1CCCCN1c1cc(C(=O)Nc2cnccn2)c2c(n1)CCOCC2 [Ex 70, 2-[(2S)-2-methylpiperidin-1-yl]-N-(pyrazin-2-yl)-5,6,8,9-tetrahydrooxepino[4,5-b]pyridine-4-carboxamide hydrochloride] |  |  | positive | 
15 | O=C(Nc1ccc(Cl)cn1)c1cc(N2CCC[C@H](F)C2)nc2c1CCOCC2 [Ex 76, N-(5-chloropyridin-2-yl)-2-[(3S)-3-fluoropiperidin-1-yl]-5,6,8,9-tetrahydrooxepino[4,5-b]pyridine-4-carboxamide benzenesulfonate] |  |  | positive | 
16 | O=C(N[C@H]1CN2CCC1CC2)c1ccc(Cl)cc1 [PNU-282987, N-(3R)-1-azabicyclo[2.2.2]octo-3-yl-4-chlorobenz amide, reference compound] |  |  |  | calcium response, substance alone (human α7 nACh receptor [1]; agonist alone or test compound alone): not elicited
